# From patent US6987093B2 (priority 2001, dated 2006)
# Like-named read-outs stand apart in the source and are kept apart here.
# Key:
# H. influenzae [1] = settings: cited from earlier work
# H. influenzae [2] = assay: Study 95-001 otitis media caused by H. influenzae; type: in vivo, human; settings: single intramuscular dose 50 mg/kg; 9 patients; follow-up
# Description: Specimens for culture and susceptibility testing were obtained from the infected ear by tympanocentesis within 24 h of start of therapy. […] However, the study was evaluated using the breakpoints in the most recent set of guidelines.
# To be a bacteriological cure, the MITT subject had to have a positive culture from the middle ear for S. pneumoniae, H influenzae, or M. catarrhalis. Eradication was defined as presumed eradication of pretreatment pathogen(s) based on signs/symptoms or unavailability of culturable material. All evaluable patients had only one of the bacterial species present at baseline. There was no bacteriological response data collected for 95–001. However, the clinical outcome by bacterial pathogen at follow-up (approximately 28 days after first visit) was collected. For patients with S. pneumoniae as the baseline pathogen, all treatment arms yielded 100% clinical cure when the investigators' evaluations that were missing are not included in the analysis. […] The comparator drug, ceftriaxone, had no failures out of 9 patients.
# S. pyogenes 02C0203 = assay: MIC determination, S. pyogenes; type: cell-based, Streptococcus pyogenes; settings: listed as Clanthromycin
# Description: (§1) MIC Determinations. Streptococcus pneumoniae, S. pyogenes, E. faecalis, and H. influenzae MICs were determined using the broth microdilution procedure recommended by the NCCLS. Test trays were incubated at 35C without carbon dioxide. For testing of streptococci, the cation-adjusted Mueller-Hinton broth was supplemented with 2–3% lysed horse blood. For testing H. influenzae, freshly prepared Haemophilus Test Medium broth was used.
# (§2) Bacterial Strains. • S. pneumoniae 02J1016, serotype 3, originally isolated from blood culture (strain P 4241) (MLS- and penicillin-susceptible). • S. pyogenes 02C0203, ATCC 12384, group A, type 3 (MLS-susceptible). • E. faecalis 03A1085, vancomycin susceptible clinically derived strain. • H. influenzae 54A1100, (43095 ATCC Fulghum strain) non-serotype B strain originally isolated from otitis media (macrolide and penicillin susceptible). • H. influenzae 54A1218, clinically derived non-serotype B strain (macrolide-susceptible, penicillin-resistant, TEM-1 beta-lactamase).
# H. influenzae 54A1100 = assay: MIC determination, H. influenzae 54A1100; type: cell-based, Haemophilus influenzae; settings: H. influenzae 54A1100
# Description: as §1, §2
# [3] = tested on: Haemophilus influenzae 54A1100; assay: Gerbil middle ear (otitis media) infection model, ED50, H. influenzae 54A1100; type: in vivo; settings: oral QD; gerbil otitis media model
# [4] = tested on: Streptococcus pneumoniae 02J1016; assay: Murine lung (pulmonary/pneumonia) infection model challenged with Streptococcus pneumoniae; type: in vivo, mouse
# [5] = tested on: Streptococcus pneumoniae 02J1016; assay: Murine peritonitis model, Streptococcus pneumoniae; type: in vivo, mouse; settings: oral QD
# [6] = tested on: Streptococcus pyogenes 02C0203; assay: Murine acute infection (peritonitis) model challenged with Streptococcus pyogenes; type: in vivo, mouse
# [7] = tested on: Haemophilus influenzae 54A1100; assay: Murine acute infection (peritonitis) model challenged with Haemophilus influenzae; type: in vivo, mouse; settings: for Mice Surviving/Total: Q.D. [1 day]
# S. pneumoniae isolates = assay: Susceptibility (MIC) testing of trial S. pneumoniae isolates with PCR of resistance mechanism; type: cell-based, Streptococcus pneumoniae; settings: for MIC: Streptococcus pneumoniae
# From the text: Samples of middle ear fluid were split for storage at a central laboratory and cultured locally. All pathogens isolated locally were subcultured and sent to a central laboratory for confirmation and susceptibility testing, performed by Kirby-Bauer disk-diffusion or MIC testing according to NCCLS standards.
# Polymerase chain reaction (PCR) determination of resistance mechanisms in all the azithromycin-resistant pneumococci was done.
# Cultures were taken for antimicrobial susceptibility testing and bacterial species were identified. Current NCCLS approved breakpoints for MICs and zone sizes were applied to all data irrespective of the breakpoint in use at the time of the study. The isolates from the clinical studies were sent to central laboratories for identification and susceptibility determination. The methods for agar diffusion disk tests are those recommended by NCCLS.
# The susceptibility breakpoints for azithromycin were defined as follows: […]
# [8] = 1.56 mg/kg/day P.O., 2 day regimen
# [9] = 3.12 mg/kg/day P.O., 1 day regimen
# [10] = 6.25 mg/kg/day P.O., 2 day regimen
# [11] = 25.0 mg/kg/day P.O., 2 day regimen
# [12] = 50.0 mg/kg/day P.O., 1 day regimen
# [13] = oral QD, murine pneumonia model
# [14] = oral QD, murine peritonitis model
structure (smiles),measurement,setting,value
CC=CC1=C(C(=O)O)N2C(=O)[C@@H](NC(=O)[C@H](N)c3ccc(O)cc3)[C@H]2SC1 [Cefprozil],"success rate less than control (amoxicillin/clavulanic acid); presumptive bacterial/clinical cure outcomes (i.e., clinical success) at 10–16 days post-therapy",H. influenzae [1],17% less than control (amoxicillin/clavulanic
CO/N=C(\C(=O)N[C@@H]1C(=O)N2C(C(=O)O)=C(CSc3nc(=O)c(=O)[nH]n3C)CS[C@H]12)c1csc(N)n1 [Ceftriaxone],failures,H. influenzae [2],no failures
CC[C@H]1OC(=O)[C@H](C)[C@@H](O[C@H]2C[C@@](C)(OC)[C@@H](O)[C@H](C)O2)[C@H](C)[C@@H](O[C@@H]2O[C@H](C)C[C@H](N(C)C)[C@H]2O)[C@](C)(OC)C[C@@H](C)C(=O)[C@H](C)[C@@H](O)[C@]1(C)O [Clarithromycin],MIC,S. pyogenes 02C0203,MIC 0.01-0.03 μg/ml
same,MIC,H. influenzae 54A1100; listed as Clanthromycin,8 µg/mL
same,MIC,"H. influenzae 54A1100; Haemophilus influenzae, read-out: MIC",8 µg/mL
same,ED50 One-Day Therapy,[3],>200 mg/kg/therapy
same,ED50 Three-Day Therapy,[3],>200 mg/kg/therapy
same,ED50 Two-Day Therapy,[3],>200 mg/kg/therapy
same,Mice Surviving/Total,"[4]; 1.04 mg/kg/day P.O., 3 day regimen",0/10
same,Mice Surviving/Total,[4]; [8],0/10
same,Mice Surviving/Total,[4]; [9],0/10
same,Mice Surviving/Total,"[4]; 4.2 mg/kg/day P.O., 3 day regimen",0/10
same,Mice Surviving/Total,[4]; [10],0/10
same,Mice Surviving/Total,"[4]; 16.7 mg/kg/day P.O., 3 day regimen",0/10
same,Mice Surviving/Total,[4]; [11],0/10
same,Mice Surviving/Total,[4]; [12],1/10
same,Mice Surviving/Total,"[4]; 66.7 mg/kg/day P.O., 3 day regimen",2/10
same,Mice Surviving/Total,"[4]; 100.0 mg/kg/day P.O., 2 day regimen",1/10
same,Mice Surviving/Total,"[4]; 200.0 mg/kg/day P.O., 1 day regimen",4/10
same,Oral PD50,[4]; Dosing Regimen 1 day,>200 mg/kg/day
same,Oral PD50,[4]; Dosing Regimen 2 days,>200 mg/kg/day
same,Oral PD50,[4]; Dosing Regimen 3 days,>200 mg/kg/day
same,Mice Surviving/Total,"[4]; […] P.O., 1 day regimen",1/10
same,PD50s,"[4]; all three q.d. regimens (1, 2, 3 days)",> 200 mg/kg
same,ED50 One-Day Therapy,[4]; [13],270 mg/kg/therapy
same,ED50 Three-Day Therapy,[4]; [13],338 mg/kg/therapy
same,ED50 Two-Day Therapy,[4]; [13],327 mg/kg/therapy
same,PD50s,"[4]; previous data, BID administration over two days of therapy",5 to 25 mg/kg
same,ED50 One-Day Therapy,[5],99.8 mg/kg/therapy
same,ED50 Three-Day Therapy,[5],87.5 mg/kg/therapy
same,ED50 Two-Day Therapy,[5],103.0 mg/kg/therapy
same,Mice Surviving/Total,"[6]; 0.20 mg/kg/day P.O., 3 day regimen",0/10
same,Mice Surviving/Total,"[6]; 0.39 mg/kg/day P.O., 2 day regimen",0/10
same,Mice Surviving/Total,"[6]; 0.78 mg/kg/day P.O., 1 day regimen",0/10
same,Mice Surviving/Total,"[6]; 0.78 mg/kg/day P.O., 3 day regimen",5/10
same,Mice Surviving/Total,[6]; [8],8/10
same,Mice Surviving/Total,[6]; [9],4/10
same,Mice Surviving/Total,"[6]; 3.12 mg/kg/day P.O., 3 day regimen",9/10
same,Mice Surviving/Total,[6]; [10],9/10
same,Mice Surviving/Total,[6]; [11],8/10
same,Mice Surviving/Total,[6]; [12],10/10
same,Oral PD50,[6]; Dosing Regimen 1 day,11.3 (3.1–19.4) mg/kg/day
same,Oral PD50,[6]; Dosing Regimen 2 days,2.2 (0.9–3.6) mg/kg/day
same,Oral PD50,[6]; Dosing Regimen 3 days,3.1 (2.6–3.7) mg/kg/day
same,Mice Surviving/Total,"[6]; […] P.O., 1 day regimen",6/10
same,Mice Surviving/Total,"[6]; […] P.O., 3 day regimen",10/10
same,ED50 One-Day Therapy,[6]; [14],11.7^1 mg/kg/therapy
same,ED50 Three-Day Therapy,[6]; [14],3.8 mg/kg/therapy
same,ED50 Two-Day Therapy,[6]; [14],2.5 mg/kg/therapy
same,Mice Surviving/Total,[7]; 3.12 mg/kg/day,0/10
same,Mice Surviving/Total,[7]; 50 mg/kg/day,2/10
same,Mice Surviving/Total,[7]; 200 mg/kg/day,0/10
same,Oral PD50,[7]; Dosing Regimen 1 day,>200 mg/kg/day
same,Mice Surviving/Total,[7]; […],0/10
same,PD50,"[7]; one therapeutic dose (one day regimen), s.c.",> 200 mg/kg
same,ED50 One-Day Therapy,[7]; [14],>200 mg/kg/therapy
same,ED50 Three-Day Therapy,[7]; [14],>200 mg/kg/therapy
same,ED50 Two-Day Therapy,[7]; [14],>200 mg/kg/therapy
CCC[C@@H]1C[C@@H](C(=O)N[C@@H]([C@H]2O[C@H](SC)[C@H](O)[C@@H](O)[C@H]2O)[C@H](C)Cl)N(C)C1 [clindamycin],clindamycin MIC,S. pneumoniae isolates; S. pneumoniae strains with erm(B),128 µg/mL
same,MIC,"S. pneumoniae isolates; read-out: clindamycin MIC, S. pneumoniae strains confirmed as mef(A)",< 0.06 µg/mL
same,MIC,"S. pneumoniae isolates; read-out: clindamycin MIC, S. pneumoniae strains with erm(B)",> 128 µg/mL
